Measured values taken from the NIST ThermoML archive (doi:10.1016/j.jct.2010.06.011).
Numbers after ± are expanded uncertainties.

Experiment: xn = mol fraction of the nth substance listed
Conditions: Liquid, Vibrating tube method

COC(=O)OC [dimethyl carbonate] + CCCCCC
mass density [kg/m3]
Conditions | 100 kPa | 5000 kPa | 10000 kPa | 20000 kPa | 30000 kPa | 40000 kPa
293.15 K, x1 = 0.1 | 684.2 ± 0.3 | 689.7 ± 0.3 | 694.6 ± 0.4 | 703.9 ± 0.4 | 712.2 ± 0.5 | 719.8 ± 0.6
293.15 K, x1 = 0.2 | 712 ± 0.3 | 717.6 ± 0.4 | 722.6 ± 0.4 | 732 ± 0.4 | 740.4 ± 0.5 | 748.1 ± 0.6
293.15 K, x1 = 0.3 | 742.7 ± 0.3 | 748.3 ± 1.5 | 753.3 ± 0.3 | 762.8 ± 0.4 | 771.3 ± 0.5 | 779.2 ± 0.5
293.15 K, x1 = 0.4 | 776.5 ± 0.3 | 782.1 ± 1.6 | 787.2 ± 0.4 | 796.7 ± 0.4 | 805.3 ± 0.4 | 813.2 ± 0.5
293.15 K, x1 = 0.5 | 813.8 ± 0.4 | 819.4 ± 0.4 | 824.5 ± 0.4 | 834 ± 0.4 | 842.6 ± 0.4 | 850.6 ± 0.5
293.15 K, x1 = 0.6 | 855 ± 0.4 | 860.5 ± 0.4 | 865.5 ± 0.4 | 875 ± 0.4 | 883.6 ± 0.4 | 891.5 ± 0.4
293.15 K, x1 = 0.7 | 900.5 ± 0.4 | 905.9 ± 0.8 | 910.9 ± 0.3 | 920.2 ± 0.3 | 928.7 ± 0.3 | 936.6 ± 0.4
293.15 K, x1 = 0.8 | 951.6 ± 0.4 | 956.8 ± 0.7 | 961.6 ± 0.3 | 970.7 ± 0.3 | 978.9 ± 0.3 | 986.8 ± 0.3
293.15 K, x1 = 0.9 | 1008.5 ± 0.3 | 1013.4 ± 0.3 | 1018 ± 0.3 | 1026.7 ± 0.3 | 1034.6 ± 0.3 | 1042.3 ± 0.3
293.15 K, x1 = 0.95 | 1038.4 ± 0.3 | 1043.2 ± 0.3 | 1047.6 ± 0.3 | 1056.1 ± 0.3 | 1063.9 ± 0.3 | 1071.5 ± 0.3
293.15 K, x1 = 1 | 1069.8 ± 0.3 | 1074.4 ± 0.3 | 1078.6 ± 0.3 | 1086.9 ± 0.3 | 1094.5 ± 0.3 | 1101.9 ± 0.4
298.15 K, x1 = 0.1 | 679.5 ± 0.3 | 685.1 ± 0.3 | 690.3 ± 0.3 | 699.8 ± 0.4 | 708.4 ± 0.5 | 716 ± 0.6
298.15 K, x1 = 0.2 | 707 ± 0.3 | 712.8 ± 1.1 | 718 ± 0.4 | 727.7 ± 0.4 | 736.4 ± 0.5 | 744.2 ± 0.6
298.15 K, x1 = 0.3 | 737.5 ± 0.3 | 743.3 ± 1.6 | 748.6 ± 0.4 | 758.3 ± 0.4 | 767.2 ± 0.5 | 775.1 ± 0.5
298.15 K, x1 = 0.4 | 771.1 ± 0.3 | 776.9 ± 1.8 | 782.2 ± 0.4 | 792 ± 0.4 | 800.9 ± 0.4 | 808.9 ± 0.5
298.15 K, x1 = 0.5 | 808.2 ± 0.3 | 814 ± 0.4 | 819.3 ± 0.4 | 829.1 ± 0.4 | 838 ± 0.4 | 846.1 ± 0.5
298.15 K, x1 = 0.6 | 849.2 ± 0.3 | 854.9 ± 0.3 | 860.2 ± 0.3 | 869.9 ± 0.4 | 878.8 ± 0.4 | 886.9 ± 0.4
298.15 K, x1 = 0.7 | 894.5 ± 0.3 | 900.2 ± 1.1 | 905.3 ± 0.3 | 914.9 ± 0.3 | 923.7 ± 0.3 | 931.7 ± 0.3
298.15 K, x1 = 0.8 | 945.4 ± 0.3 | 950.8 ± 0.3 | 955.8 ± 0.3 | 965.1 ± 0.3 | 973.7 ± 0.3 | 981.6 ± 0.3
298.15 K, x1 = 0.9 | 1002.1 ± 0.3 | 1007.3 ± 0.3 | 1012 ± 0.3 | 1020.8 ± 0.3 | 1029.1 ± 0.3 | 1036.9 ± 0.3
298.15 K, x1 = 0.95 | 1032 ± 0.3 | 1036.9 ± 0.3 | 1041.5 ± 0.3 | 1050.2 ± 0.3 | 1058.2 ± 0.3 | 1065.9 ± 0.3
298.15 K, x1 = 1 | 1063.2 ± 0.3 | 1068 ± 0.3 | 1072.4 ± 0.3 | 1080.8 ± 0.3 | 1088.7 ± 0.3 | 1096.2 ± 0.4
303.15 K, x1 = 0.1 | 674.6 ± 0.3 | 680.3 ± 0.3 | 685.7 ± 0.4 | – | – | –
303.15 K, x1 = 0.2 | 701.9 ± 0.3 | 707.7 ± 0.3 | 713.3 ± 0.4 | – | – | –
303.15 K, x1 = 0.3 | 732.2 ± 0.3 | 738 ± 2.1 | 743.6 ± 0.4 | – | – | –
303.15 K, x1 = 0.4 | 765.6 ± 0.3 | 771.5 ± 0.9 | 777.1 ± 0.3 | – | – | –
303.15 K, x1 = 0.5 | 802.5 ± 0.3 | 808.3 ± 0.4 | 813.9 ± 0.4 | – | – | –
303.15 K, x1 = 0.6 | 843.3 ± 0.3 | 849.5 ± 0.3 | 855 ± 0.3 | – | – | –
303.15 K, x1 = 0.7 | 888.5 ± 0.3 | 894.5 ± 1.9 | 899.9 ± 0.3 | – | – | –
303.15 K, x1 = 0.8 | 939.1 ± 0.3 | 944.8 ± 0.3 | 950 ± 0.3 | – | – | –
303.15 K, x1 = 0.9 | 995.7 ± 0.3 | 1000.9 ± 0.3 | 1005.9 ± 0.3 | – | – | –
303.15 K, x1 = 0.95 | 1025.4 ± 0.3 | 1030.4 ± 0.3 | 1035.2 ± 0.3 | – | – | –
303.15 K, x1 = 1 | 1056.5 ± 0.3 | 1061.3 ± 0.3 | 1066 ± 0.3 | – | – | –
